Test results reported in patent US10227331B2 (priority 2015, dated 2019).

Legend:
IMP-1 = IMP-1 (Serratia marcescens, UniProt P52699); assay: biochemical; type: biochemical; conditions: CCF2-FA substrate, 2 hours at 25° C; read-out: IMP-1 IC50
Outline: (§1)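 Fluorescence assay, CCF2-FA substrate (cephalosporin core linking 7-hydroxycoumarin to fluorescein); inhibitor + MBL + substrate, 2 h, 25° C. IC50 by 4-parameter fit, semi-log plot.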

NDM-1 = NDM-1 (Klebsiella pneumoniae, UniProt C7C422); assay: biochemical; type: biochemical; conditions: CCF2-FA substrate, 2 hours at 25° C; read-out: NDM-1 IC50
Sequence of NDM-1 (C7C422 whole entry, looked up, species assumed): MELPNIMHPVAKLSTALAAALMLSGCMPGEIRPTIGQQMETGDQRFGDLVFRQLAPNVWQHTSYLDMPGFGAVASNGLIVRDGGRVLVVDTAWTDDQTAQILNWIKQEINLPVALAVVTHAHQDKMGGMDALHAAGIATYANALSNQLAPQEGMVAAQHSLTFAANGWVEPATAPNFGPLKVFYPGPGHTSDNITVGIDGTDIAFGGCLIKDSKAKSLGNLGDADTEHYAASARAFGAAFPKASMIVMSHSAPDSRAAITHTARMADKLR
Outline: as §1

VIM-1 = VIM-1 (Pseudomonas aeruginosa (strain ATCC 15692 / DSM 22644 / CIP 104116 / JCM 14847 / LMG 12228 / 1C / PRS 101 / PAO1), UniProt A0A0F7KYQ8); assay: biochemical; conditions: CCF2-FA substrate, 2 hours at 25° C
Outline: as §1

[1] = system: Escherichia coli expressing NDM-1 (CLB30005, CLB30016); type: cell-based; conditions: with imipenem 1 μg/ml, 95% inhibition of bacterial growth; for Escherichia coli MITC95: NDM-1 (CLB30016)
Outline: (§2)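 Colonies from overnight 35 °C blood-agar cultures were suspended in saline, diluted 1:100 into 1.1× CAMHB and exposed to test compound with or without imipenem at 1 μg/ml. After 22–24 h at 35 °C, absorbance was read to find the concentration restoring imipenem susceptibility.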

[2] = system: Klebsiella pneumoniae expressing VIM-1 (IHMA599644); type: cell-based; conditions: with imipenem 1 μg/ml, 95% inhibition of bacterial growth; for Klebsiella pneumoniae MITC95: VIM-1 (IHMA599644)
Outline: as §2

[3] = system: Serratia marcescens expressing IMP-1 (CL5741); type: cell-based; conditions: with imipenem 1 μg/ml, 95% inhibition of bacterial growth; for Serratia marcescens MITC95: IMP-1 (CL5741)
Outline: as §2

[4] = system: P. aeruginosa expressing IMP-1, efflux+ (MB9798); type: cell-based, Pseudomonas aeruginosa; conditions: for P. aeruginosa expressing IMP-1, efflux+ (MB9798) MITC95: imipenem at 2 μg/mL, in the presence of a class A, C, D serine β-lactamase inhibitor closely related to relebactam; for Efflux ratio: ratio MITC95 PA_9798/MITC95 PA_9799
From the text: (§3) The strain background is Pseudomonas aeruginosa PAO1.

[5] = system: P. aeruginosa expressing IMP-1, efflux− (MB9799); assay: Efflux: concentration of MBL inhibitor which restores susceptibility to imipenem; type: cell-based, Pseudomonas aeruginosa; conditions: imipenem at 2 μg/mL, in the presence of a class A, C, D serine β-lactamase inhibitor closely related to relebactam
From the text: as §3

Sequence of IMP-1 (P52699 whole entry, looked up, species assumed): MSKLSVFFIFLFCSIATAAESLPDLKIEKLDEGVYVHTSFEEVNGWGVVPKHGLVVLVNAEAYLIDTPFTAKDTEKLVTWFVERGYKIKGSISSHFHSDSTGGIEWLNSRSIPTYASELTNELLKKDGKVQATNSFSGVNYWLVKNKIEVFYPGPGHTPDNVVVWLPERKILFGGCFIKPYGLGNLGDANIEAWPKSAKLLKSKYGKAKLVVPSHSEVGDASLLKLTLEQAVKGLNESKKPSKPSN

| Structure (SMILES) | IC50 (IMP-1) [nM] | IC50 (NDM-1) [nM] | IC50 (VIM-1) [nM] | Escherichia coli MITC95 [1] [µM] | Klebsiella pneumoniae MITC95 [2] [µM] | Serratia marcescens MITC95 [3] [µM] | P. aeruginosa expressing IMP-1, efflux+ (MB9798) MITC95 [4] [µM] | Efflux ratio [4] | P. aeruginosa expressing IMP-1, efflux− (MB9799) MITC95 [5] [µM] | Escherichia coli expressing NDM-1 (CLB30016) MITC95 [1] [µM] | Klebsiella pneumoniae expressing VIM-1 (IHMA599644) MITC95 [2] [µM] | Serratia marcescens expressing IMP-1 (CL5741) MITC95 [3] [µM] |
| --- | --- | --- | --- | --- | --- | --- | --- | --- | --- | --- | --- | --- |
| Nc1nc2c(-c3ccc(S(=O)(=O)C4CNC4)c(S(N)(=O)=O)c3-c3nn[nH]n3)ccc(F)c2[nH]1 [Example 251, 3-(2-Amino-7-fluoro-1H-benzo[d]imidazol-4-yl)-6-(azetidin-3-ylsulfonyl)-2-(2H-tetrazol-5-yl)benzenesulfonamide] | 0.748 | 0.0727 | 0.251 | 0.3906 | 1.563 | 1.563 | 1.563 | 2.00 | 0.7813 | – | – | – |
| NS(=O)(=O)c1c(Sc2ccncc2)ccc(-c2ccc(C3CCNCC3)cc2)c1-c1nn[nH]n1 [Example 242, 4′-(Piperidin-4-yl)-4-(pyridin-4-ylthio)-2-(2H-tetrazol-5-yl)-[1,1′-biphenyl]-3-sulfonamide] | 3.34 | 4.01 | 7.47 | – | – | – | 50 | 31.99 | 1.563 | 12.5 | 50 | 6.25 |
| NS(=O)(=O)c1c(S(=O)(=O)C2CNC2)ccc([C@H]2CC[C@H](N)CC2)c1-c1nnn[nH]1 [Example 212, 3-((1r,4r)-4-aminocyclohexyl)-6-(azetidin-3-ylsulfonyl)-2-(1H-tetrazol-5-yl) benzenesulfonamide] | 30.2 | 11.3 | 0.864 | – | – | – | 1.563 | 2.00 | 0.7813 | 0.7813 | 1.563 | 1.563 |
| NS(=O)(=O)c1c(S(=O)(=O)C2CNC2)ccc(-c2cccc3nccn23)c1-c1nnn[nH]1 [Example 66, 6-(Azetidin-3-ylsulfonyl)-3-(imidazo[1,2-a]pyridin-5-yl)-2-(1H-tetrazol-5-yl)benzenesulfonamide] | 9.67 | 0.591 | 0.569 | – | – | – | 50 | 8.00 | 6.25 | 3.125 | 12.5 | 6.25 |
| NCCCS(=O)(=O)c1ccc(-c2cccc3sc(N)nc23)c(-c2nn[nH]n2)c1S(N)(=O)=O [Example 194, 3-(2-aminobenzo[d]thiazol-4-yl)-6-(3-aminopropylsulfonyl)-2-(2H-tetrazol-5-yl)benzenesulfonamide] | 0.154 | 0.0908 | 0.208 | – | – | – | 0.3906 | 0.50 | 0.7813 | 0.7813 | 1.563 | 0.7813 |
| NS(=O)(=O)c1c(S(=O)(=O)C2CNC2)ccc(-c2ccc(C3CCNCC3)cc2)c1-c1nn[nH]n1 [Example 6] | 0.212 | 0.307 | 0.195 | – | – | – | 0.7813 | 1.00 | 0.7813 | 0.7813 | 1.563 | 1.563 |
| NCCS(=O)(=O)c1ccc(-c2cccc3[nH]c([C@H](N)CO)nc23)c(-c2nn[nH]n2)c1S(N)(=O)=O [Example 329, (S)-3-(2-(1-amino-2-hydroxyethyl)-1H-benzo[d]imidazol-4-yl)-6-((2-aminoethyl)sulfonyl)-2-(2H-tetrazol-5-yl) benzenesulfonamide] | 1.93 | 0.404 | 0.282 | 1.563 | 6.25 | 3.125 | 3.125 | 2.00 | 1.563 | – | – | – |
| Cc1cc(-c2ccc(S(=O)(=O)C3CNC3)c(S(N)(=O)=O)c2-c2nnn[nH]2)cnc1C#N.O=C(O)C(F)(F)F [Example 99, 3-((4-(6-cyano-5-methylpyridin-3-yl)-2-sulfamoyl-3-(1H-tetrazol-5-yl)phenyl)sulfonyl)azetidin-1-ium 2,2,2-trifluoroacetate] | 13.7 | 3.94 | 0.535 | – | – | – | 200 | 127.96 | 1.563 | 6.25 | 6.25 | 12.5 |
| Nc1nc2c(-c3ccc(S(=O)(=O)C[C@H](N)CO)c(S(N)(=O)=O)c3-c3nn[nH]n3)cccc2[nH]1 [Example 273, 3-(2-amino-1H-benzo[d]imidazol-4-yl)-6-((R)-2-amino-3-hydroxypropylsulfonyl)-2-(2H-tetrazol-5-yl)benzenesulfonamide] | 0.709 | 0.147 | 0.254 | 0.3906 | 1.563 | 1.563 | 0.7813 | 1.00 | 0.7813 | – | – | – |
| NC[C@H](CO)S(=O)(=O)c1ccc(-c2cccc3nc(N)[nH]c23)c(-c2nn[nH]n2)c1S(N)(=O)=O [Example 351, (R)-3-(2-amino-1H-benzo[d]imidazol-7-yl)-6-((1-amino-3-hydroxypropan-2-yl)sulfonyl)-2-(1H-tetrazol-5-yl)benzenesulfonamide] | 1.36 | 0.2 | 0.711 | 0.7813 | 1.563 | 0.7813 | 0.7813 | 1.00 | 0.7813 | – | – | – |
| Cn1cc2ccc(-c3ccc(S(=O)(=O)CCN)c(S(N)(=O)=O)c3-c3nnn[nH]3)cc2n1.O=C(O)C(F)(F)F [Example 154, 2-((4-(2-methyl-2H-indazol-6-yl)-2-sulfamoyl-3-(1H-tetrazol-5-yl)phenyl)sulfonyl)ethanaminium 2,2,2-trifluoroacetate] | 0.676 | 1.13 | 0.43 | – | – | – | 12.5 | 8.00 | 1.563 | 3.125 | 6.25 | 3.125 |
| Cc1ccc(-c2ccc(S(=O)(=O)CCN)c(S(N)(=O)=O)c2-c2nn[nH]n2)c2nc(N)sc12 [Example 80, 3-(2-amino-7-methylbenzo[d]thiazol-4-yl)-6-(2-aminoethylsulfonyl)-2-(2H-tetrazol-5-yl)benzenesulfonamide] | 0.085 | 0.0508 | 0.11 | – | – | – | 0.7813 | 1.00 | 0.7813 | 1.172 | 1.563 | 0.7813 |
| CNC(=O)c1ccc(-c2ccc(S(=O)(=O)CCN)c(S(N)(=O)=O)c2-c2nnn[nH]2)cn1.O=C(O)C(F)(F)F [Example 139, 2-((4-(6-(methylcarbamoyl)pyridin-3-yl)-2-sulfamoyl-3-(1H-tetrazol-5-yl)phenyl)sulfonyl)ethanaminium 2,2,2-trifluoroacetate] | 3.32 | 3.96 | 2.04 | – | – | – | 12.5 | 8.00 | 1.563 | 1.563 | 6.25 | 3.125 |
